Test system: genes predictive for the anti-inflammatory macrolide effect
Assay: Genes statistically predictive of Clari response: differentially expressed with Clari but not the inactive macrolides MAA or Josa (Appendix E)
Assay type: cell-based
Text: In the case of the above-mentioned (i) related to arachidonic acid biosynthesis, specifically, methods of the embodiment involve assaying whether a test macrolide alters biosynthesis of arachidonic acid, alters the expression or activities of enzymes involved in the biosynthesis or activation of arachidonic acid (e.g., arachidonic acid CoA synthetase, delta-6 desaturase, fatty acid elongase, and delta-5 desaturase, AA-related genes in Tables 2 and 3), or alters the expression of genes identified as predictive for the anti-inflammatory macrolide effect (Appendix E). Assays in which arachidonic acid or gene expression or enzymatic activity is detected can be carried out after contacting a cell with a test macrolide. Any cell line that secretes prostaglandin or produces arachidonic acid can be used. Epithelial and macrophages lines (e.g., A549 or THP-1) are suitable for this purpose; other cell lines can be identified by carrying out assays such as those described in the specific Examples, below. Alternatively, screening assays can be carried out after adding a test macrolide to an in vitro cell system (e.g., a cellular extract or liver microsome preparation) or an in vitro enzyme assay system.

Compound: CC[C@H]1OC(=O)[C@H](C)[C@@H](O[C@H]2C[C@@](C)(OC)[C@@H](O)[C@H](C)O2)[C@H](C)[C@@H](O[C@@H]2O[C@H](C)C[C@H](N(C)C)[C@H]2O)[C@](C)(OC)C[C@@H](C)C(=O)[C@H](C)[C@@H](O)[C@]1(C)O [clarithromycin]
- group mean, gene UNG (SpotID 48807, MAA and Josa vs. Clari): 0.91
- group mean, gene TUBB (SpotID 48914, MAA and Josa vs. Clari): 0.83
- group mean, gene ITGAE (SpotID 48921, MAA and Josa vs. Clari): 0.99
- mean group, ITGAE (SpotID 48921, pooled group mean): 0.97
- group mean, gene P4HA2 (SpotID 48971, MAA and Josa vs. Clari): 1.48
- group mean, gene FADS1 (SpotID 48998, MAA and Josa vs. Clari): 1.44
- group mean, gene PRSS25 (SpotID 49006, MAA and Josa vs. Clari): 1.17
- mean group, PRSS25 (SpotID 49006, pooled group mean): 1.14
- group mean, gene TM9SF2 (SpotID 49007, MAA and Josa vs. Clari): 1.20
- mean group, TM9SF2 (SpotID 49007, pooled group mean): 1.18
- group mean, gene BBC3 (SpotID 49013, MAA and Josa vs. Clari): 1.07
- group mean, gene BNIP3L (SpotID 49028, MAA and Josa vs. Clari): 1.25
- mean group, BNIP3L (SpotID 49028, pooled group mean): 1.20
- group mean, gene GSK3B (SpotID 49032, MAA and Josa vs. Clari): 1.23
- group mean, gene GLUD1 (SpotID 49047, MAA and Josa vs. Clari): 0.95
- group mean, gene SERPINB1 (SpotID 49117, MAA and Josa vs. Clari): 0.84
- mean group, SERPINB1 (SpotID 49117, pooled group mean): 0.88
- group mean, gene PPIB (SpotID 49142, MAA and Josa vs. Clari): 1.18
- group mean, gene PIK3R3 (SpotID 49144, MAA and Josa vs. Clari): 1.15
- group mean, gene ARTS-1 (SpotID 49155, MAA and Josa vs. Clari): 0.81
- mean group, ARTS-1 (SpotID 49155, pooled group mean): 0.86
- group mean, gene LGALS3 (SpotID 49163, MAA and Josa vs. Clari): 1.23
- group mean, gene RRS1 (SpotID 49169, MAA and Josa vs. Clari): 0.88
- mean group, RRS1 (SpotID 49169, pooled group mean): 0.93
- group mean, gene YAF2 (SpotID 49172, MAA and Josa vs. Clari): 0.90
- group mean, gene NEDD8 (SpotID 49177, MAA and Josa vs. Clari): 1.06
- group mean, gene SRRM1 (SpotID 49183, MAA and Josa vs. Clari): 0.81
- group mean, gene FUCA1 (SpotID 49197, MAA and Josa vs. Clari): 1.13
- group mean, gene APOE (SpotID 49233, MAA and Josa vs. Clari): 1.03
- mean group, APOE (SpotID 49233, pooled group mean): 1.01
- mean group, TNFRSF10B (SpotID 49272, pooled group mean): 1.08
- group mean, gene PPIB (SpotID 49314, MAA and Josa vs. Clari): 1.18
- mean group, PPIB (SpotID 49314, pooled group mean): 1.16
- group mean, gene YWHAH (SpotID 49318, MAA and Josa vs. Clari): 0.95
- mean group, YWHAH (SpotID 49318, pooled group mean): 0.97
- group mean, gene HNRPA3 (SpotID 49347, MAA and Josa vs. Clari): 0.71
- group mean, gene NCBP2 (SpotID 49352, MAA and Josa vs. Clari): 1.03
- group mean, gene TEB4 (SpotID 49360, MAA and Josa vs. Clari): 0.88
- mean group, TEB4 (SpotID 49360, pooled group mean): 0.94
- group mean, gene ABCE1 (SpotID 49364, MAA and Josa vs. Clari): 0.92
- group mean, gene EIF3S9 (SpotID 49373, MAA and Josa vs. Clari): 0.94
- mean group, SpotID 49374 (SpotID 49374 (gene symbol not given), pooled group mean): 1.03
- group mean, SpotID 49374 (gene symbol not given) (SpotID 49374, MAA and Josa vs. Clari): 1.04
- group mean, gene SLC35A2 (SpotID 49380, MAA and Josa vs. Clari): 1.11
- group mean, gene PPP3CB (SpotID 49391, MAA and Josa vs. Clari): 0.92
- group mean, gene TRRAP (SpotID 49435, MAA and Josa vs. Clari): 0.89
- mean group, TRRAP (SpotID 49435, pooled group mean): 0.92
- group mean, gene SRC (SpotID 49446, MAA and Josa vs. Clari): 1.17
- mean group, SRC (SpotID 49446, pooled group mean): 1.14
- group mean, gene LOC55871 (SpotID 49481, MAA and Josa vs. Clari): 1.05
- group mean, gene VTN (SpotID 49490, MAA and Josa vs. Clari): 0.91
- mean group, VTN (SpotID 49490, pooled group mean): 0.94
- group mean, gene MATN2 (SpotID 49511, MAA and Josa vs. Clari): 1.17
- group mean, gene GC20 (SpotID 49512, MAA and Josa vs. Clari): 1.16
- group mean, gene UBC (SpotID 49514, MAA and Josa vs. Clari): 1.11
- mean group, UBC (SpotID 49514, pooled group mean): 1.09
- group mean, gene AP1G2 (SpotID 49524, MAA and Josa vs. Clari): 0.97
- mean group, AP1G2 (SpotID 49524, pooled group mean): 0.92
- group mean, gene GNPI (SpotID 49546, MAA and Josa vs. Clari): 1.16
- mean group, LOC54543 (SpotID 49577, pooled group mean): 1.02
- group mean, gene PSMC4 (SpotID 49580, MAA and Josa vs. Clari): 0.99
- mean group, CSTF3 (SpotID 49606, pooled group mean): 1.07
- group mean, gene POU4F1 (SpotID 49608, MAA and Josa vs. Clari): 1.05
- group mean, gene CLN2 (SpotID 49618, MAA and Josa vs. Clari): 1.15
- mean group, CLN2 (SpotID 49618, pooled group mean): 1.12
- group mean, gene FGF2 (SpotID 49649, MAA and Josa vs. Clari): 0.76
- group mean, gene MAP3K10 (SpotID 49650, MAA and Josa vs. Clari): 1.16
- mean group, BTN3A2 (SpotID 49673, pooled group mean): 1.11
- mean group, SERPINF1 (SpotID 49679, pooled group mean): 1.09
- group mean, gene GSK3B (SpotID 49688, MAA and Josa vs. Clari): 1.26
- group mean, gene CAT (SpotID 49698, MAA and Josa vs. Clari): 1.08
- group mean, gene PCYT2 (SpotID 49705, MAA and Josa vs. Clari): 1.24
- group mean, gene HNRPD (SpotID 49715, MAA and Josa vs. Clari): 0.88
- group mean, gene GSK3B (SpotID 49735, MAA and Josa vs. Clari): 1.13
- group mean, gene CHAF1B (SpotID 49737, MAA and Josa vs. Clari): 0.84
- mean group, CHAF1B (SpotID 49737, pooled group mean): 0.88
- group mean, gene USF2 (SpotID 49744, MAA and Josa vs. Clari): 1.07
- group mean, gene RPLP0 (SpotID 49747, MAA and Josa vs. Clari): 1.09

Source: patent US20070172957A1, “Methods of identifying anti-inflammatory macrolides” (TAISHO PHARMACEUTICAL CO., LTD., priority 2004, published 2007)
